Experimental data published in ChEMBL document CHEMBL5365519, “Design and Characterization of 1,3-Dihydro-2H-benzo[d]azepin-2-ones as Rule-of-5 Compliant Bivalent BET Inhibitors” (ACS Med Chem Lett, 2023).
≈ marks a conversion by molar mass, not a printed value.

Tests used:
C-C motif chemokine 2 [1] = biological target: T1, C-C motif chemokine 2 (Homo sapiens, UniProt P13500); assay: Inhibition of MCP-1 in LPS-stimulated human whole blood pretreated with compound for 30 mins followed by LPS-stimulation and measured after 10 mins by microplate analysis; assay type: tissue-based
C-C motif chemokine 2 [2] = biological target: T1, C-C motif chemokine 2; assay: Inhibition of MCP-1 in LPS-stimulated human PBMC cells pretreated with compound for 30 mins followed by LPS-stimulation and measured after 10 mins by microplate analysis; assay type: cell-based
[3] = Antiproliferative activity against human NMC 11060 cell assessed as inhibition of cell growth incubated for 72 hrs by cell-titer glo assay; assay type: functional, cell-based; settings: NMC 11060, 72 h
HL-60 = assay: Antiproliferative activity against human HL-60 cells assessed as inhibition of cell growth incubated for 72 hrs by cell-titer glo assay; assay type: functional, cell-based; settings: HL-60, 72 h
[4] = biological target: T2, Bromodomain-containing protein 4 (Homo sapiens, UniProt O60885); assay: Inhibition of halo-tagged BRD4 (unknown origin) expressed in HEK293 cells incubated for 4 hrs by biosensor assay; assay type: cell-based
[5] = biological target: T2, Bromodomain-containing protein 4; assay: Inhibition of BRD4 BD2 (unknown origin) by TR-FRET assay
[6] = biological target: T2, Bromodomain-containing protein 4; assay: Inhibition of BRD4 BD1 (unknown origin) by TR-FRET assay
[7] = biological target: T2, Bromodomain-containing protein 4; assay: Inhibition of histone binding to BRD4 (unknown origin) expressed in HEK293 cells using histone H3.3 as substrate incubated for 18 to 24 hrs by nano-BRET analysis; assay type: cell-based
[8] = Lipophilicity, logD of compound at pH 7.4 by HPLC analysis; assay type: physicochemical; settings: buffer
[9] = Solubility of compound in simulated lung fluid at pH 6.9; assay type: physicochemical
MV4-11 = assay: Antiproliferative activity against human MV4-11 cells assessed as inhibition of cell growth incubated for 72 hrs by cell-titer glo assay; assay type: functional, cell-based; settings: MV4-11, 72 h

T1 sequence (P13500 whole entry): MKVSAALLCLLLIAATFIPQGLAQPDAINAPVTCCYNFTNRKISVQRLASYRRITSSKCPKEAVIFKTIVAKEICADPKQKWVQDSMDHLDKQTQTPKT

SMILES | IC50 (C-C motif chemokine 2 [1]) [nM] | IC50 (C-C motif chemokine 2 [2]) [nM] | IC50 [3] [nM] | IC50 (HL-60) [nM] | EC50 [4] [nM] | IC50 [5] [nM] | IC50 [6] [nM] | IC50 [7] [nM] | logD [8] | solubility [9] [µg/mL] | IC50 (MV4-11) [nM] | pIC50 (C-C motif chemokine 2 [2]; pbmc)
Cc1sc2c(c1C)C(c1ccc(Cl)cc1)=N[C@@H](CC(=O)OC(C)(C)C)c1nnc(C)n1-2 | 631 | 6.31 | – | – | – | – | – | – | – | – | – | –
COc1cc2c(cc1-c1c(C)noc1C)ncc1[nH]c(=O)n([C@H](C)c3ccccn3)c12 | 200 | 39.8 | 631 | 126 | – | – | – | – | – | – | – | –
COCC(COC)n1c(-c2cc(C)c(=O)n(C)c2)nc2cc(N3CCOCC3)ccc21 | 25.1 | 7.94 | – | – | – | – | – | – | – | – | – | –
C[C@@H]1C(=O)N(C)CCN1CCOc1ccc(C2CCN(c3ccc4nncn4n3)CC2)cc1 | 2000 | 200 | – | – | 1000 | 39800 | 25100 | 398 | – | – | – | –
COc1cc2c(cc1OC)[C@@H](C)C(=O)N(C)C=C2 | 1000 | 50.1 | – | – | – | – | – | – | – | – | – | –
C[C@H]1C(=O)N(C)C=Cc2cc(OCCCCCOc3ccc4c(c3)C=CN(C)C(=O)[C@@H]4C)ccc21 | 12.6 | < 2 | – | – | 7.94 | 20 | 39.8 | 0.631 | 7.4 | < 1 | – | –
C[C@H]1C(=O)N(C)C=Cc2cc(OCCCCCCCOc3ccc4c(c3)C=CN(C)C(=O)[C@@H]4C)ccc21 | 79.4 | < 2 | – | – | 3.98 | 39.8 | 79.4 | 1 | 8.5 | – | – | –
CC1C(=O)N(C)C=Cc2ccc(OCCCCCCOc3ccc4c(c3)C(C)C(=O)N(C)C=C4)cc21 (configuration not stated) | 3980 | – | – | – | 1000 | ≥ 1580 | 3160 | > 1000 | – | – | – | –
C[C@H]1C(=O)N(C)C=Cc2cc(OCCOc3ccc4c(c3)C=CN(C)C(=O)[C@@H]4C)ccc21 | 126 | 0.251 | – | – | 1.26 | 31.6 | 63.1 | 0.631 | 5.8 | – | – | –
C[C@H]1C(=O)N(C)C=Cc2cc(OCCCCOc3ccc4c(c3)C=CN(C)C(=O)[C@@H]4C)ccc21 | 5.01 | 0.0398 | 0.794 | 0.398 | 1.58 | 6.31 | 3.16 | 0.316 | 7.1 | 2 (≈ 4.34 µM) | 0.501 | –
C[C@H]1C(=O)N(C)C=Cc2cc(OCCCOc3ccc4c(c3)C=CN(C)C(=O)[C@@H]4C)ccc21 | 50.1 | < 2 | – | – | 2.51 | 39.8 | 100 | 15.8 | 6.7 | < 1 | – | –
CC1C(=O)N(C)C=Cc2ccc(OCCCCCOc3ccc4c(c3)C(C)C(=O)N(C)C=C4)cc21 (configuration not stated) | 15800 | – | – | – | – | 3980 | 631 | – | 7.5 | – | – | –
C[C@H]1C(=O)N(C)C=Cc2cc(CN3CCN(Cc4ccc5c(c4)C=CN(C)C(=O)[C@@H]5C)CC3)ccc21 | 6.31 | < 0.2 | – | – | 2 | 25.1 | 15.8 | 0.501 | 5.43 | 465 (≈ 959 µM) | – | –
COc1nnc2ccc(N3CCC(c4ccc(OCCN5CCN(C)C(=O)[C@H]5C)cc4)CC3)nn12 [AZD-5153] | 15.8 | 3.16 | – | – | 15.8 | 3160 | 398 | 15.8 | – | – | – | –
CC(=O)Nc1c(F)cc(C(=O)N[C@H]2CC[C@H](O)CC2)cc1O[C@@H](C)c1ccccc1 [GSK046] | – | – | – | – | – | – | – | – | – | – | – | 7.5
COCc1nc2cnc3cc(-c4c(C)noc4C)c(OC[C@H]4CCNC4)cc3c2n1[C@H](C)c1ccccc1 [GSK778] | 158 | – | – | – | – | – | – | – | – | – | – | –
